From patent publication US20250127896A1, “CHIMERIC TIM4 RECEPTORS AND USES THEREOF” (CERO THERAPEUTICS HOLDINGS, INC., priority 2021, published 2025)

Assays:
REC-1 cells = experiment: T-cell activation markers PD-1 and 4-1BB in co-culture with REC-1 cells (flow cytometry); type: cell-based; details: co-culture with REC-1 cells in the presence of 0.5 μM ibrutinib, 96 hours
Method: FIGS. 15A-15B: Induction of Cell-Surface Markers of T-Cell Activation in Ibrutinib-Treated Co-Cultures of CER1183 and CER1234 T cells and REC-1 Target Cells. Samples depicted in bar graphs from left to right, untransduced, CER-1183, and CER-1234. FIG. 15A: PD-1 expression in co-cultures. FIG. 15B: 4-1BB expression in co-cultures.
T-cell activation markers programmed death-1 (PD-1) and 4-1BB were evaluated on viable CD3+ T cells by flow cytometry using commercially available fluorochrome-conjugated antibodies. […] Assays were conducted 96 hours after initiation of co-culture of CER T cells with REC-1 cells.

NSCLC H1975 cells = experiment: H1975 NSCLC cell growth with CER1236 T cells and osimertinib (Incucyte); type: cell-based; details: 100 nM osimertinib 24 h, then 4.88 nM, E:T 0.25:1, 120 h
Method: FIG. 39: Graph showing NSCLC H1975 cell growth for cells pretreated with 100 nM osimertinib or vehicle and then co-cultured with CER1236 T cells.
CER1236 T cells were tested in combination with EGFR tyrosine kinase inhibitor osimertinib on a non-small cell lung cancer (NSCLC) cell line. Ten-thousand NSCLC H1975 cells were cultured for 24 h with 100 nM osimertinib or vehicle (DMSO) and then co-cultured with 2500 CER1236 T cells at an Effector:Target cell ratio of 0.25:1 in the presence or absence of 4.88 nM osimertinib or vehicle. Tumor cell growth was monitored with indicated for 120 h in an Incucyte assay.

[1] = system: JeKo-1 MCL mCherry+ cells; experiment: IFN-γ secretion of CER1236 T cells co-cultured with ibrutinib-treated JeKo-1 cells (ELLA); type: cell-based; details: JeKo-1 pretreated 20 μM Ibrutinib 48 h, co-culture 0.5 μM Ibrutinib, 120 h
Method: After 120 h, IFN-γ secretion was measured using ELLA automated ELISA.

Jeko1 TMEM30A−/− cells = details: mantle cell lymphoma mouse model
Method: Using an engineered TMEM30a phospholipid flippase knockout JeKo-1 lymphoma cell line with constitutive phosphatidylserine exposure (JeKo-1 PS^+), tumor fragment uptake, cytotoxicity, cytokine secretion (GrB, IFN-γ, and TNF-α), and APC-like activity were evaluated in vitro. JeKo-1 PS^+ cells were labeled with the pH-sensitive pHrodo™ dye to quantify the uptake of tumor cells. Chimeric Tim4 receptor-T cells were tested for antigen-display capacity by evaluating autologous HPV E7 TCR T cell activation and proliferation following Chimeric Tim4 receptor-T cell co-culture with JeKo PS+ cells and HPV-derived peptides. Finally, Chimeric Tim4 receptor T cell anti-tumor activity was examined in xenografted MCL models. Statistical analysis was performed using 2-way ANOVA.

Substance | PD-1 and 4-1BB expression on the T-cell surface (REC-1 cells) | H1975 tumor cell growth, combination with osimertinib (NSCLC H1975 cells) | IFN-γ response with ibrutinib [1] | anti-tumor effect / tumor burden (Jeko1 TMEM30A−/− cells)
CER-1234: chimeric Tim4 receptor: Tim4 binding domain-CD28tm-CD28-TLR2 TIR-CD3z, SEQ ID NO:18; tested as transduced T cells | increased PD-1 and 4-1BB expression | – | – | –
CER-1236: chimeric Tim4 receptor: Tim4 binding domain-CD28tm-CD28-CD3z-TLR2 TIR, SEQ ID NO:19; tested as transduced T cells | – | synergizes to inhibit H1975 NSCLC cells in vitro | enhances CER1236 T cell IFN-γ response | showed anti-tumor effect
